System: giant synaptic terminal of depolarizing bipolar cells from the goldfish retina
Type: cell-based
Settings: n=7

O=C(O)CN(CC(=O)O)c1ccccc1OCCOc1ccccc1N(CC(=O)O)CC(=O)O [BAPTA]
increase in area of the footprint triggered by depolarization: completely blocked
